Holding throughout (assay type): cell-based, human
One data set has as its system NCI-H929. The data set is described as follows: Cell cycle analysis by PI staining and FACS, NCI-H929. The note with it: NCI-H929, 10 μM, within 48 h of culture. The procedure:
Cell cycle analysis of control (DMSO-treated) or MAL3-101-treated NCI-H929 (2×10^5) was assessed by PI staining and FACS analysis of samples. Resulting DNA distributions were analyzed for the proportions of cells in G0/G1 and G2/M phases of the cell cycle after subtractive gating of cell doublets and debris as described in G. Anderson, M. Gries, N. Kurihara, T. Honjo, J. Anderson, V. Donnenberg, A. Donnenberg, I. Ghobrial, M. Y. Mapara, D. Stirling, D. Roodman, S. Lentzsch, Thalidomide derivative CC-4047 inhibits osteoclast formation by down-regulation of PU. 1, Blood 107 (2006) 3098-3105, which is incorporated herein by reference.

For data set [1], the system named is EPCs from multiple myeloma patients. Description: MTS survival assay, endothelial progenitor cells (EPCs) from MM patients. As to conditions: FIG. 36C. The protocol: (§1) For endothelial progenitor cells (EPC) outgrowth, bone marrow were further separated using Ficoll-Hypaque (Sigma Chemicals, St Louis, Mo.) density-gradient centrifugation and mononuclear cells were cultured (7×10^6 cells/well) in laminin-coated, 6-well plates (Becton Dickinson Labware, Bedford, Mass.) in EndoCult Basal Medium supplemented with 20% fetal bovine serum (StemCell Technologies, Vancouver, Canada) and antibiotics (100 U/ml penicillin G, 100 μg/ml streptomycin) until confluent. […] Outgrown EPCs were identified by the expression of endothelial and progenitor cell surface markers, including von Willebrand factor (a blood glycoprotein involved in coagulation), vascular endothelial-cadherin (where cadherins are a class of transmembrane proteins), vascular endothelial growth factor receptor-2, CD34, and CD133, as well as the absence of the MM marker CD38, determined by immunocytochemistry and flow cytometry. EPCs were passaged when they were 60-70% confluent by trypsin-ethylenediaminetetraacetic acid (EDTA) treatment (Invitrogen, Carlsbad, Calif.) onto 96-well culture plates (BD Biosciences, San Jose, Calif.). […]

Experiment in data set [2]: as above
The note with it: human, EPCs of MM patients, FIG. 36C, read-out: reduction of viability of EPCs. The protocol: as §1

Structures are written as SMILES. Residues, ends and D or L forms follow the SMILES beside them. *: point of attachment. Cbz = O=C(OCc1ccccc1)*

As for `CCCCCCN(C(=O)CCCCCN1C(=O)NC(c2ccc(-c3ccccc3)cc2)C(C(=O)OCc2ccccc2)=C1C)C(C(=O)NCCCC)c1ccc(OCC(=O)OC)c(C(=O)OC)c1` (stereo not shown) [MAL3-101], in the data set on NCI-H929, the “decrease in cells in the G2/M phase” value was 2.5 fold and the “increase in the sub-G0/G1 phase” value is roughly 3 fold. Moreover, in data set [1], the “reduction of viability of EPCs” value was 10±14%.
On to `CC(C)C[C@@H](C=O)NC(=O)[C@H](CC(C)C)NC(=O)[C@H](CC(C)C)NC(=O)OCc1ccccc1` [MG-132, reference compound] (Cbz-Leu-Leu-Leu-aldehyde), for which the cytotoxicity in data set [2] came out at 16 ± 17%.
